Reference: PMC9653409, “Generative deep learning enables the discovery of a potent and selective RIPK1 inhibitor” (Nature Communications, 2022)

Key:
Assay in all cases: Kinase inhibitory activity profiling of RI-962@10 µM (406 kinases, Eurofins)
Format in all cases: biochemical
[1] = molecular target: panel of human kinases (kinase named in endpoint) (Homo sapiens, UniProt P09619); conditions: 10 µM; read-out: Activity (%), PDGFRβ(h)
Procedure, shortened: (§1)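 Radiometric filter-binding kinase assays: enzyme preincubated 15 min with compound in 8 mM MOPS pH 7.0, 0.2 mM EDTA, 250 μM peptide substrate, 10 mM magnesium acetate, 10 μM [γ-33P]-ATP. Reaction started with Mg/ATP, run 40 min at room temperature, stopped with phosphoric acid; 33P incorporation read by scintillation counting. Other kinases by similar protocols.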

[2] = molecular target: panel of human kinases (kinase named in endpoint) (Homo sapiens, UniProt P17948); conditions: 10 µM; read-out: Activity (%), Flt1(h)
Procedure, shortened: as §1

[3] = molecular target: panel of human kinases (kinase named in endpoint) (Homo sapiens, UniProt Q14680); conditions: 10 µM; read-out: Activity (%), MELK(h)
Procedure, shortened: as §1

[4] = molecular target: panel of human kinases (kinase named in endpoint) (Homo sapiens, UniProt Q9UQB9); conditions: 10 µM; read-out: Activity (%), Aurora-C(h)
Procedure, shortened: as §1

[5] = molecular target: panel of human kinases (kinase named in endpoint) (Homo sapiens, UniProt P36888, D835Y); conditions: 10 µM; read-out: Activity (%), Flt3(D835Y)(h)
Procedure, shortened: as §1

[6] = molecular target: panel of human kinases (kinase named in endpoint) (Homo sapiens, UniProt O75116); conditions: 10 µM; read-out: Activity (%), ROCK-II(h)
Procedure, shortened: as §1

[7] = molecular target: panel of human kinases (kinase named in endpoint) (Homo sapiens, UniProt P48426); conditions: 10 µM; read-out: Activity (%), PIP4K2a(h)
Procedure, shortened: as §1

[8] = molecular target: panel of human kinases (kinase named in endpoint) (Homo sapiens, UniProt Q16620); conditions: 10 µM; read-out: Activity (%), TrkB(h)
Procedure, shortened: as §1

[9] = molecular target: panel of human kinases (kinase named in endpoint) (Homo sapiens, UniProt Q13131); conditions: 10 µM; read-out: Activity (%), AMPKα1(h)
Procedure, shortened: as §1

[10] = molecular target: panel of human kinases (kinase named in endpoint) (Homo sapiens, UniProt P53350); conditions: 10 µM; read-out: Activity (%), Plk1(h)
Procedure, shortened: as §1

[11] = molecular target: panel of human kinases (kinase named in endpoint) (Homo sapiens, UniProt P45984); conditions: 10 µM; read-out: Activity (%), JNK2α2(h)
Procedure, shortened: as §1

[12] = molecular target: panel of human kinases (kinase named in endpoint) (Homo sapiens, UniProt Q9BQI3); conditions: 10 µM; read-out: Activity (%), HRI(h)
Procedure, shortened: as §1

[13] = molecular target: panel of human kinases (kinase named in endpoint) (Homo sapiens, UniProt P51451); conditions: 10 µM; read-out: Activity (%), Blk(h)
Procedure, shortened: as §1

[14] = molecular target: panel of human kinases (kinase named in endpoint) (Homo sapiens, UniProt P00519, Q252H); conditions: 10 µM; read-out: Activity (%), Abl (Q252H) (h)
Procedure, shortened: as §1

[15] = molecular target: panel of human kinases (kinase named in endpoint) (Homo sapiens, UniProt Q86Y07); conditions: 10 µM; read-out: Activity (%), VRK2(h)
Procedure, shortened: as §1

[16] = molecular target: panel of human kinases (kinase named in endpoint) (Homo sapiens, UniProt P11309); conditions: 10 µM; read-out: Activity (%), Pim-1(h)
Procedure, shortened: as §1

[17] = molecular target: panel of human kinases (kinase named in endpoint) (Homo sapiens, UniProt P42336, E545K); conditions: 10 µM; read-out: Activity (%), PI3(p110a(E545K)/p85a)
Procedure, shortened: as §1

[18] = molecular target: panel of human kinases (kinase named in endpoint) (Homo sapiens, UniProt Q9BXA7); conditions: 10 µM; read-out: Activity (%), TSSK1(h)
Procedure, shortened: as §1

[19] = molecular target: panel of human kinases (kinase named in endpoint) (Homo sapiens, UniProt P35626); conditions: 10 µM; read-out: Activity (%), GRK3(h)
Procedure, shortened: as §1

[20] = molecular target: panel of human kinases (kinase named in endpoint) (Homo sapiens, UniProt Q04771); conditions: 10 µM; read-out: Activity (%), ALK2(h)
Procedure, shortened: as §1

[21] = molecular target: panel of human kinases (kinase named in endpoint) (Homo sapiens, UniProt O00506); conditions: 10 µM; read-out: Activity (%), STK25(h)
Procedure, shortened: as §1

[22] = molecular target: panel of human kinases (kinase named in endpoint) (Homo sapiens, UniProt O94768); conditions: 10 µM; read-out: Activity (%), DRAK2(h)
Procedure, shortened: as §1

[23] = molecular target: panel of human kinases (kinase named in endpoint) (Homo sapiens, UniProt Q9NWZ3); conditions: 10 µM; read-out: Activity (%), IRAK4(h)
Procedure, shortened: as §1

[24] = molecular target: panel of human kinases (kinase named in endpoint) (Homo sapiens, UniProt Q9UQM7); conditions: 10 µM; read-out: Activity (%), CaMKIIα(h)
Procedure, shortened: as §1

[25] = molecular target: panel of human kinases (kinase named in endpoint) (Homo sapiens, UniProt Q8IWQ3); conditions: 10 µM; read-out: Activity (%), BrSK2(h)
Procedure, shortened: as §1

panel of human kinases (kinase named in endpoint) (Homo sapiens, UniProt Q9UQB9), sequence (Q9UQB9 whole entry): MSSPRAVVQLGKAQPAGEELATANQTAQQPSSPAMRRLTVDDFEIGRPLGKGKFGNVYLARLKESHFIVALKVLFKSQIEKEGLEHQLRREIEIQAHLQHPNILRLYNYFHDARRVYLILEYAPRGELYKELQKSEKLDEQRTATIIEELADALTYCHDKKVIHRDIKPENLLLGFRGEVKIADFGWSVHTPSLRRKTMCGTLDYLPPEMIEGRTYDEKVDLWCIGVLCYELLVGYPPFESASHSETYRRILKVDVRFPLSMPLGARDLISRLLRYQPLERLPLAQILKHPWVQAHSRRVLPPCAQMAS
panel of human kinases (kinase named in endpoint) (Homo sapiens, UniProt P35626), sequence (P35626 whole entry): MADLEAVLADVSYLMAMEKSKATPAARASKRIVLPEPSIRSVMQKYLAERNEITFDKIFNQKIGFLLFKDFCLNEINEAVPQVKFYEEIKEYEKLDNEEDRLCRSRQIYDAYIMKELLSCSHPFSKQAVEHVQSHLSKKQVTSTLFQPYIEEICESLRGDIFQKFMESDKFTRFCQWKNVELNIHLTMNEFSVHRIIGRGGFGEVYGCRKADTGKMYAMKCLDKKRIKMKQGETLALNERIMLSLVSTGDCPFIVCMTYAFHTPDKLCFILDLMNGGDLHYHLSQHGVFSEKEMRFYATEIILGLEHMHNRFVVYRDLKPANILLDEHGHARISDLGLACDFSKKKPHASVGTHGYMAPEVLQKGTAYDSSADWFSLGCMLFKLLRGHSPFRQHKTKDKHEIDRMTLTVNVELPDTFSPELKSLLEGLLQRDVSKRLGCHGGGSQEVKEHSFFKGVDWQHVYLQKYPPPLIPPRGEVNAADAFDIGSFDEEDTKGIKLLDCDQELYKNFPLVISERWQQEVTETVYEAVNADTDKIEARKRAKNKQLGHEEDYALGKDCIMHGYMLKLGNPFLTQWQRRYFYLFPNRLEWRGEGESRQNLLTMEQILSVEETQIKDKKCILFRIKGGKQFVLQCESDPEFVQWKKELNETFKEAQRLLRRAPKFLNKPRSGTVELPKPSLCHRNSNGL
panel of human kinases (kinase named in endpoint) (Homo sapiens, UniProt Q9BQI3), sequence (Q9BQI3 whole entry): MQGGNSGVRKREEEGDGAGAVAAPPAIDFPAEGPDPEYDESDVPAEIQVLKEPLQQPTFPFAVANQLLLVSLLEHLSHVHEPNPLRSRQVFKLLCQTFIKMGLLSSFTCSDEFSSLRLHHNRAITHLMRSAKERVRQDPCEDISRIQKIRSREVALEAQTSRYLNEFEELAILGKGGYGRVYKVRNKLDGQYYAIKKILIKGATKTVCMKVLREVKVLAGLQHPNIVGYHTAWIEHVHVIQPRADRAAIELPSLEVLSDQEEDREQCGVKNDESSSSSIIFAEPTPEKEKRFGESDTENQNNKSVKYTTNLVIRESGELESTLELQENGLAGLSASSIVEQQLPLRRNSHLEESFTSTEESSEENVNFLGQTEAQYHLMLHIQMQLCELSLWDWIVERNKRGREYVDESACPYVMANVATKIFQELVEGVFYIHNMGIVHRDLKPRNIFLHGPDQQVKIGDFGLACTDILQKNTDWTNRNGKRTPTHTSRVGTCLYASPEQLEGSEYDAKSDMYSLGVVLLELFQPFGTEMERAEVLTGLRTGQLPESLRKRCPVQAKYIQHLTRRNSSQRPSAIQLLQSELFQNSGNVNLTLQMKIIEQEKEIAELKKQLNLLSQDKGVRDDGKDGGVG
panel of human kinases (kinase named in endpoint) (Homo sapiens, UniProt P09619), sequence (P09619 33-1106): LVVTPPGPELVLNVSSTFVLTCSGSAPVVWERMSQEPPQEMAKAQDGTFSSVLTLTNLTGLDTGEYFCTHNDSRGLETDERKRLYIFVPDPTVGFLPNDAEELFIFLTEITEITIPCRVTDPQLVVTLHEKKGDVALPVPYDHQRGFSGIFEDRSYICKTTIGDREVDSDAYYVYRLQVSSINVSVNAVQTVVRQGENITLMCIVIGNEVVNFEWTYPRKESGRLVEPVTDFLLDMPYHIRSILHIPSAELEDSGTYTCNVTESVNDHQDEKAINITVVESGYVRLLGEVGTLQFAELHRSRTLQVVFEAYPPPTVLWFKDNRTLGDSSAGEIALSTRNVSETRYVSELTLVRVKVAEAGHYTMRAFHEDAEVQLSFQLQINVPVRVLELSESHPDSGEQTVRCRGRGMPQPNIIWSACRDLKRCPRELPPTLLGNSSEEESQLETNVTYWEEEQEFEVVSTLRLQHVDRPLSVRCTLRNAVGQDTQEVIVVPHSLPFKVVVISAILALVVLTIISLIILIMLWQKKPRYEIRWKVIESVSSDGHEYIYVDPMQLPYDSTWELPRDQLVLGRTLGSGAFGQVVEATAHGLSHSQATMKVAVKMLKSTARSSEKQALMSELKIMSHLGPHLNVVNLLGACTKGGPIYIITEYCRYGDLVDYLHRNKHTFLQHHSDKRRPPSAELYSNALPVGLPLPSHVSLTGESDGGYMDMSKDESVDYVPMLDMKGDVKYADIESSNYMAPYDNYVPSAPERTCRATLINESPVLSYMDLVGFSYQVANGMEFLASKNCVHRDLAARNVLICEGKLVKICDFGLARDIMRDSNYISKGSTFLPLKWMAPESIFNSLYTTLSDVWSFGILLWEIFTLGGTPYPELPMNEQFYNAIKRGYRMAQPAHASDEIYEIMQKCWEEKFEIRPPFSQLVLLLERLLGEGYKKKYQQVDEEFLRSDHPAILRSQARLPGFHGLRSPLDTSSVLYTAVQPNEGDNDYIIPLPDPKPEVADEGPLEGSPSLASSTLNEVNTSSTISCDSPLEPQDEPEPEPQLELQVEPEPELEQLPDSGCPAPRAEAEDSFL
panel of human kinases (kinase named in endpoint) (Homo sapiens, UniProt O75116), sequence (O75116 whole entry): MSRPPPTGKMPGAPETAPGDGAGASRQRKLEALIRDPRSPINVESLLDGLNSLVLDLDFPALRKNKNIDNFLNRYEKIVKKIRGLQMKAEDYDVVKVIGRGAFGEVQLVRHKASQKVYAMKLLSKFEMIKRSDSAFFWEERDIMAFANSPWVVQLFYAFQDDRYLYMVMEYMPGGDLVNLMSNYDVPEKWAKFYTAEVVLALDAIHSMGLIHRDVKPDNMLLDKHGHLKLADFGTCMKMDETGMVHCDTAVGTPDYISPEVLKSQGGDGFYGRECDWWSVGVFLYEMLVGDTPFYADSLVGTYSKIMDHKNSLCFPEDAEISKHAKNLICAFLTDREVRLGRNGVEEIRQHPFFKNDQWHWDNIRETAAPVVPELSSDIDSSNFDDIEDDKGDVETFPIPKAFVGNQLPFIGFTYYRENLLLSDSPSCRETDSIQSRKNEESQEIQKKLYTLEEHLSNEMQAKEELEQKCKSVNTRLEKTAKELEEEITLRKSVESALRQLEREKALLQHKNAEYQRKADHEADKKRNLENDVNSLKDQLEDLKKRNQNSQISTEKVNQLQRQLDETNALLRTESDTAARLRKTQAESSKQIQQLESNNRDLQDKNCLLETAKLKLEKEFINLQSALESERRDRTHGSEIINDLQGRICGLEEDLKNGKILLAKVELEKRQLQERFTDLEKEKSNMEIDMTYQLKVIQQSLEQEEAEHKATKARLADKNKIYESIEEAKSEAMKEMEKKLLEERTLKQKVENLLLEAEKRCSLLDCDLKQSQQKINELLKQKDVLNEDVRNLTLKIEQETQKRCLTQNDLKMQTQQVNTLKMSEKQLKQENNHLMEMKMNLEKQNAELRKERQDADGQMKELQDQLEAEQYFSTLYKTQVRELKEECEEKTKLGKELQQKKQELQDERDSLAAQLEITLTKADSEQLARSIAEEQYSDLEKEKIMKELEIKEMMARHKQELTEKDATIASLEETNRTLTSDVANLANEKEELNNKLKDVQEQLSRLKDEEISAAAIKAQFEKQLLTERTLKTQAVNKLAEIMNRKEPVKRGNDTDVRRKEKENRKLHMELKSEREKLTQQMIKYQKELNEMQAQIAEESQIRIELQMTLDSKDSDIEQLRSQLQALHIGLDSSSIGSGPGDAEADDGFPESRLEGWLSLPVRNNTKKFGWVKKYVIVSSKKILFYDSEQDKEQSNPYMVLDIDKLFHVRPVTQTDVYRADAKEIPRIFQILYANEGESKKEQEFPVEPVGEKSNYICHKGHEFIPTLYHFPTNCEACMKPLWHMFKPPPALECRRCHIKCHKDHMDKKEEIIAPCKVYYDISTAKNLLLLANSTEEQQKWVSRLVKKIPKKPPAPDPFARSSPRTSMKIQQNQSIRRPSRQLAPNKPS
panel of human kinases (kinase named in endpoint) (Homo sapiens, UniProt P48426), sequence (P48426 whole entry): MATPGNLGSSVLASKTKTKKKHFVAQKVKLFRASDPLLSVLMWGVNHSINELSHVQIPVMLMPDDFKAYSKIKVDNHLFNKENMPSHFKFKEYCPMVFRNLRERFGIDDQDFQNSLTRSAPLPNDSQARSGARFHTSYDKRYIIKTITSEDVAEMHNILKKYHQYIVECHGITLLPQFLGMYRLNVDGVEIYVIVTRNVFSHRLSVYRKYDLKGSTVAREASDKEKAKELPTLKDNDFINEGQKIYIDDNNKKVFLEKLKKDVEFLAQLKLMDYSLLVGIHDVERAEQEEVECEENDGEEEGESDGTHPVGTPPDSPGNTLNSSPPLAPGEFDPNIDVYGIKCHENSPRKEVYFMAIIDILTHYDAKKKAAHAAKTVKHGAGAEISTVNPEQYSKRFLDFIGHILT
panel of human kinases (kinase named in endpoint) (Homo sapiens, UniProt O94768), sequence (O94768 whole entry): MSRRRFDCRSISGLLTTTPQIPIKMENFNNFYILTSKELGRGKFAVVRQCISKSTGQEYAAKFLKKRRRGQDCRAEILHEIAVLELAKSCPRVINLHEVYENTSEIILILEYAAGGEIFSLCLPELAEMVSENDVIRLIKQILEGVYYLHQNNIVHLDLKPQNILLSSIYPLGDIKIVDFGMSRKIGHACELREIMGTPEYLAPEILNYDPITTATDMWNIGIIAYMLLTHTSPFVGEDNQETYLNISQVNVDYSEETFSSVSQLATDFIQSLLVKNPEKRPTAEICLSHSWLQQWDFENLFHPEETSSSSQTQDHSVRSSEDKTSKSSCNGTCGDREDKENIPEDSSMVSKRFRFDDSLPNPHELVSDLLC

**Q.** Which results are given for `CC(C)C(=O)Nc1nc2cc(-c3ccc4c(c3)c(C(=O)NC(C)c3ccccc3)cn4C)ccn2n1` (stereo not shown) [RI-962]?
**A.** activity at 10 µM [1]: 107%; activity at 10 µM [2]: 85%; activity at 10 µM [3]: 95%; activity at 10 µM [4]: 95%; activity at 10 µM [5]: 88%; activity at 10 µM [6]: 90%; activity at 10 µM [7]: 98%; activity at 10 µM [8]: 126%; activity at 10 µM [9]: 93%; activity at 10 µM [10]: 122%; activity at 10 µM [11]: 71%; activity at 10 µM [12]: 99%; activity at 10 µM [13]: 96%; activity at 10 µM [14]: 135%; activity at 10 µM [15]: 89%; activity at 10 µM [16]: 101%; activity at 10 µM [17]: 96%; activity at 10 µM [18]: 84%; activity at 10 µM [19]: 92%; activity at 10 µM [20]: 104%; activity at 10 µM [21]: 81%; activity at 10 µM [22]: 106%; activity at 10 µM [23]: 79%; activity at 10 µM [24]: 93%; activity at 10 µM [25]: 110%
